Drawing on PubChem BioAssay AID1322 (NMMLSC, 2008), this text covers inhibition and outcome for 92 molecules.

For this experiment, the target named is Bcl-2-like protein 1 (Homo sapiens) (UniProt Q07817). Description: Bcl-XL binding to Bim peptide disruption – biochemical, multiplexed, bead flow cytometry, human Bcl-XL, dose response (AID 1322). On inhibition: test concentration not given here. The settings on record: Bead-based flow cytometry, MCF; for inhibition: stronger effect = higher value. (In general: Flow cytometry measures light scatter and fluorescence of single cells or particles in a stream.)

Calls of active or inactive are those of the source. How the calls were made is not given here.

Bcl-2-like protein 1 (Homo sapiens), sequence (Q07817 whole entry, looked up): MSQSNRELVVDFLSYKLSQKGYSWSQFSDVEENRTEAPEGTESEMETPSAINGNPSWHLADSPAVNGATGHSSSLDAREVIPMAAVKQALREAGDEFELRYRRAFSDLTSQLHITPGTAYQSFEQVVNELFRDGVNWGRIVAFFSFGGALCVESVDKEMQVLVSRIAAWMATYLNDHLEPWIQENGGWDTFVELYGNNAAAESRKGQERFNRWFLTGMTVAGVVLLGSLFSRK

On to `Cc1ccc(O)c(NC2=C(Cl)C(=O)N(Cc3ccccc3)C2=O)c1`, for which the inhibition result was “inactive”.

On to `CCOc1cc(/C=C2/N=C(C)C(C(=O)OC)=C2O)ccc1O`, for which the inhibition result is “inactive”.

Consider `C/C(=N/NC(=O)c1cc(O)c(O)c(O)c1)c1ccc([N+](=O)[O-])cc1`, for which the result was inactive.

`CNC(=S)N(Cc1cccs1)Cc1cc2ccc(OC)cc2[nH]c1=O`: the inhibition result was “inactive”.

As to `Cn1c(OCc2cccnc2)nc2c1c(=O)n(Cc1ccccc1)c(=O)n2C`, the inhibition entry is “inactive”.

Consider `CCOc1cc(CNc2ccc(N3CCCCC3)cc2)cc(Br)c1OCC(=O)NC(C)(C)C`, for which the result was inactive.

For the molecule `COc1cc2[nH]c(=S)nc(NCCCOC(C)C)c2cc1OC`, the inhibition result is “inactive”.

Regarding `Cc1cc(Cl)ccc1N=c1ssnc1Cl`, the inhibition result is “inactive”.

In the case of `COc1ccccc1Oc1ccc2c(c1)C(=O)N(c1cccc3ncccc13)C2=O`, the inhibition result was “inactive”.

As to `COc1ccc(C2C(C#N)=C(C)NC3=C2S(=O)(=O)c2ccccc23)cc1` (configuration not stated), the inhibition entry was “inactive”.

For the molecule `O=C(O)CC1S/C(=N/N=C/C=C/c2ccccc2[N+](=O)[O-])NC1=O` (configuration not stated), the outcome was inactive.

Consider `COCCN=c1scc(-c2cccs2)n1/N=C/c1ccc(O)c(O)c1O`, for which the inhibition result is “inactive”.

Turning to `COc1ccc(OC)c2sc(NC(=O)c3ccc(Br)s3)nc12`, the inhibition entry is “inactive”.

For the molecule `COc1ccc(/C=C/C(=O)Nc2sc(Cc3ccccc3)c(C)c2C(N)=O)cc1`, the inhibition result was “inactive”.

As for `COc1ccc(C(=O)NC(=S)N2CCNC(=O)C2)cc1Br`, the result was inactive.

Turning to `Cc1c(Cc2ccccc2)sc(N)c1C(N)=O`, the inhibition entry was “inactive”.

With `COc1ccc(/C=C2\SC(=O)NC2=S)cc1OC`, the inhibition result is “inactive”.

Turning to `CCOC(=O)CCCNC(=O)c1cncc(O)c1`, the inhibition entry is “inactive”.

On to `C=CCn1c(SCC(=O)Nc2ccc3c(c2)OCO3)nnc1-c1cc(Br)ccc1O`, for which the inhibition result is “inactive”.

Turning to `Cc1ccc(N=c2ssnc2Cl)cc1`, the inhibition entry was “inactive”.

As to `COc1ccc(C2=Nc3cccc4cccc(c34)N2)cc1`, the inhibition result was “inactive”.

`CCOC(=O)C1CCN(C(=O)Nc2ccc3nc(-c4ccco4)c(-c4ccco4)nc3c2)CC1`: the inhibition result is “inactive”.

For the molecule `Cc1ccc(-c2nc(N3CCOCC3)s[n+]2-c2ccccc2)cc1`, the inhibition entry is “inactive”.

As to `Cc1cc(C)c2nc3nc(C)cc(C)c3c(N)c2c1`, the inhibition result is “inactive”.

As to `CN(CC(=O)O/N=C(\N)c1ccc([N+](=O)[O-])cc1)S(=O)(=O)c1ccccc1`, the inhibition result is “inactive”.

Consider `Cc1sc2nc(C(C)C)nc(SCC(=O)N3c4ccccc4CC3C)c2c1C` (configuration not stated), for which the inhibition entry was “inactive”.

As to `Cc1cc(C)n(CC(=O)N/N=C/c2cccc([N+](=O)[O-])c2)n1`, the outcome was inactive.

With `O=C(NCCO)c1ccc2nc(-c3ccco3)c(-c3ccco3)nc2c1`, the inhibition result is “inactive”.

Take `N#C/C(=C(/O)CN1CCN(c2ccccc2F)CC1)c1nc(-c2ccccc2)cs1`: the inhibition entry is “inactive”.

As to `O=C1/C(=C/c2cccs2)Sc2ccccc21`, the inhibition result is “inactive”.

For the molecule `O=C(c1cc2ccccc2oc1=O)N(c1ccccc1)C1C=CS(=O)(=O)C1` (configuration not stated), the inhibition entry is “inactive”.

Consider `COc1cc2c(cc1OC)C(c1ccccc1F)OC(=O)C2` (configuration not stated), for which the inhibition entry is “inactive”.

In the case of `CNc1ccc(Br)cc(C(=O)/C=C/c2cccc(OC)c2OC)c1=O`, the inhibition entry was “inactive”.

Consider `Cc1c(NC2=C(Cl)C(=O)N(c3ccccc3Cl)C2=O)c(=O)n(-c2ccccc2)n1C`, for which the inhibition entry is “inactive”.

Regarding `CCOc1ccccc1/C=N/NC(=O)CNC(=O)COc1ccccc1`, the outcome was inactive.

Turning to `Cc1ccnc(NS(=O)(=O)c2ccc(NS(=O)(=O)c3cccs3)cc2)n1`, the inhibition result is “inactive”.

Consider `CNc1nc2ccccc2n1/N=C/c1cccc(OC)c1OC`, for which the inhibition result is “inactive”.

Turning to `O=[N+]([O-])c1ccc(N2CCN(c3ccc(O)cc3)CC2)c(Cl)c1`, the inhibition result is “inactive”.

Turning to `O=C(Nc1ccc(Cl)cn1)Nc1ccccc1F`, the inhibition entry was “inactive”.

On to `NC(=O)CSc1nnc(Cn2cnc3ccccc32)o1`, for which the inhibition entry was “inactive”.

Turning to `Cc1ccc(-c2nc3c(c(=O)[nH]c(=O)n3Cc3ccccc3)n2Cc2ccccc2)o1`, the inhibition entry was “inactive”.

As to `O=C(Nc1ccc2nc(-c3ccco3)c(-c3ccco3)nc2c1)N1CCCCCC1`, the inhibition result was “inactive”.

As to `O=C(c1ccccc1)c1ccc2nc(-c3ccco3)c(-c3ccco3)nc2c1`, the result was inactive.

On to `CCOC(=O)/C(=C\c1cccc(O)c1)c1nc2sc(C)c(C)c2c(=O)[nH]1`, for which the inhibition entry is “inactive”.

Regarding `COc1cc(NC(=S)NCCCO)c(OC)cc1Cl`, the inhibition entry was “inactive”.

For `O=C1NC(=O)C(=Cc2ccc(-c3cc(Cl)ccc3[N+](=O)[O-])o2)C(=O)N1`, the result was inactive.

For the molecule `COc1cc(/C=C2\S/C(=N/S(=O)(=O)c3ccccc3)NC2=O)c([N+](=O)[O-])cc1OC`, the inhibition result was “inactive”.

For `CNCc1ccccc1Sc1cc(O)ccc1O`, the outcome was inactive.

Consider `O=C(Cn1cncc1-c1ccc([N+](=O)[O-])cc1)Nc1ccccc1F`, for which the inhibition result is “inactive”.

For `Cc1ccc(CNc2ccc3c(c2)OCO3)c(C)c1`, the inhibition result was “inactive”.

For the molecule `CCOc1ccc(NCc2ccccc2OCc2cccc(F)c2)cc1`, the inhibition result is “inactive”.

With `Cc1cc(C)cc(-n2c(C)nc3cc(C(=O)O)ccc32)c1`, the inhibition entry is “inactive”.

For the molecule `Cc1nc2cc(F)ccc2n1C1CCN(C(=O)c2c(F)cccc2F)CC1`, the inhibition entry is “inactive”.

`S=c1[nH]cc(-c2ccccc2)n1-c1ccccc1`: the inhibition entry is “inactive”.

With `COc1ccc(N=C2NC(=O)/C(=C\C=C\c3ccco3)S2)cc1`, the inhibition result was “inactive”.

`Cc1ccc(C(=O)NNC(=O)c2ccc3ncccc3c2)cc1`: the result was inactive.

As to `BrC(=C\c1ccccc1)/C=N/N1CCN(c2ccccc2)CC1`, the outcome was inactive.

As to `O=S1(=O)N=C(N(CCO)/N=C/c2ccncc2)c2ccccc21`, the inhibition entry was “inactive”.

As to `Cc1ccc(-c2nc3c(c(=O)[nH]c(=O)n3Cc3ccccc3)n2C)o1`, the inhibition entry is “inactive”.

Consider `O=C1CSc2ccc(C(=O)Nc3cccc(S(=O)(=O)Nc4ccc(Br)cc4)c3)cc2N1`, for which the inhibition result is “inactive”.

As to `CCOC(=O)c1cc2c(=O)n3ccccc3nc2n(Cc2ccco2)c1=NC(=O)c1ccccc1OC`, the outcome was inactive.

Turning to `COc1ccc(N2CC(C(=O)Nc3nnc(SCC(=O)c4ccccc4)s3)CC2=O)cc1` (configuration not stated), the inhibition result is “inactive”.

Take `O=C(C1=NN[C@@H]2C(=O)N(c3ccccc3C(F)(F)F)C(=O)[C@H]12)c1ccc2ccccc2n1`: the result was inactive.

Regarding `Nc1c(C(=O)NCc2ccco2)sc2nc3c(cc12)C(=O)CCC3`, the inhibition entry is “inactive”.

As for `CCc1cccc(CC)c1-n1c(-c2cccnc2)n[nH]c1=S`, the inhibition result is “inactive”.

For `COCCN=c1scc(-c2ccco2)n1/N=C/c1ccc(O)c(O)c1O`, the outcome was inactive.

`O=C(Nc1ccncc1)c1cc2ccccc2o1`: the inhibition entry is “inactive”.

On to `CNC(=O)CC1C(=O)N(Cc2ccccc2)C(=S)N1NC(=O)c1cccc(F)c1` (configuration not stated), for which the outcome was inactive.

Consider `Cc1ccc(Nc2nc(-c3ccccc3)c(CC(=O)O)s2)cc1`, for which the inhibition entry was “inactive”.

In the case of `CC(=O)OCCNc1cc(Sc2nc3ccccc3[nH]2)c2nonc2c1[N+](=O)[O-]`, the inhibition entry is “inactive”.

Take `Cc1cnnn1-c1ccc(C(=O)CCl)cc1`: the inhibition result was “inactive”.

`CCN1CCN(c2cc(C)c3cc(NC(=S)N4CCN(c5ccccc5)CC4)ccc3n2)CC1`: the inhibition entry was “inactive”.

For the molecule `O=C(Nc1ccccn1)c1cc2ccccc2o1`, the inhibition result is “inactive”.

On to `Cc1ccc(C)c(NC(=O)C(=O)NCc2ccccn2)c1`, for which the outcome was inactive.

`O=C(NCCN1CCOCC1)c1cc(Cl)ccc1[N+](=O)[O-]`: the inhibition entry is “inactive”.

As to `O=C(NC1=C(NC2CCS(=O)(=O)C2)C(=O)c2ccccc2C1=O)c1ccccc1` (configuration not stated), the inhibition result is “inactive”.

For `COc1c(C)cc(Br)cc1C(=O)Nc1ccc(S(N)(=O)=O)cc1`, the outcome was inactive.

As to `CCC(CC)C(=O)Nc1cccc(S(=O)(=O)c2cccc(NC(=O)C(CC)CC)c2)c1`, the inhibition result is “inactive”.

Regarding `O=C(Cc1ccc(-c2ccccc2)cc1)NC1CCCC1`, the inhibition result was “inactive”.

On to `CC(C(=O)Nc1cc([N+](=O)[O-])ccc1Cl)N1CCN(c2ccc(O)cc2)CC1` (configuration not stated), for which the outcome was inactive.

In the case of `CCOC(=O)c1[nH]cnc1C(=O)NC(C)C`, the inhibition entry was “inactive”.

For `Cc1ccc(C(=O)CCC(=O)Nc2ccc(Cl)c(S(=O)(=O)Nc3cccc(Cl)c3)c2)cc1`, the inhibition entry is “inactive”.

As to `CCOC(=O)c1c(NC(=O)c2ccccc2N(C)S(=O)(=O)c2ccccc2)sc2c1CCCC2`, the inhibition entry is “inactive”.

`CC(C)Cc1cc(-c2ccco2)c(C#N)c(N)n1`: the inhibition entry is “inactive”.

`Cc1ccc(-c2cc(C(=O)Nc3ccccn3)c3ccccc3n2)o1`: the inhibition entry was “inactive”.

`Cc1cccc(N2C(S)=C(C#N)C(=O)NC2c2cccs2)c1` (configuration not stated): the inhibition result was “inactive”.

With `O=C(NCCCN1CCCC1=O)NC1CCCCC1`, the inhibition result is “inactive”.

`O=C(C1=NN(c2ccccc2)C2C(=O)N(c3ccccc3)C(=O)C12)c1ccccc1` (configuration not stated): the inhibition result is “inactive”.

As for `COc1ccc(-n2c(NC(=O)c3ccco3)c(C#N)c3nc4ccccc4nc32)cc1`, the inhibition result was “inactive”.

As to `CNc1ccc(Br)cc(C(=O)/C=C/c2cccc(OC)c2)c1=O`, the inhibition entry was “inactive”.

In the case of `Cc1ccc(-c2cc(-c3ccc(C)o3)nc(N)c2C#N)cc1`, the inhibition result was “inactive”.

Regarding `Cc1ccc(/C=C/C(=O)Nc2ccc([N+](=O)[O-])c(NC(=O)/C=C/c3ccc(C)o3)c2)o1`, the inhibition result was “inactive”.
